Source: patent US20240199605A1, “SMALL MOLECULAR INHIBITORS OF NF-kB INDUCING KINASE” (Janssen Pharmaceutica NV, priority 2019, published 2024)
Read-outs that look alike come from different tables or passages of the source.

Key:
[1] = tested on: p-IKKα levels in L363 (NIK translocated multiple myeloma) cells; test: Effect of compounds on p-IKKα levels in L363 cells (AlphaLISA SureFire Ultra); type: cell-based, human; settings: BAFF stimulated, MG132, 6 h, average of values, read-out: Assay 2 IC50
Procedure, shortened: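 Inhibition of p-IKKα (Ser176/180) read by AlphaLISA after 6 h, 37 °C compound exposure (11-point 1:3 series, 0.3% DMSO) of L363 cells pre-incubated overnight ± 250 ng/ml BAFF and plated ± BAFF ± 10 μM MG132. Normalised to BAFF/MG132/DMSO and unstimulated controls; IC50 by sigmoidal fitting, duplicates.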

[2] = biological target: recombinant human NF-kappaB-inducing kinase (NIK/MAP3K14) (Homo sapiens (Human), UniProt Q99558); test: Inhibition of auto-phosphorylation of recombinant human NIK/MAP3K14 (AlphaScreen); type: biochemical; settings: NIK auto-phosphorylation, 5 μM ATP, 1 nM NIK, 2 h at 25° C.; average of values
Procedure, shortened: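 AlphaScreen read-out (anti-phospho-IKK Ser176/180 antibody, Protein A acceptor and glutathione donor beads) of NIK auto-phosphorylation. Reaction: 1 nM enzyme, 5 μM ATP, Tris pH 7.5 buffer with Mg2+ and vanadate, 2 h at 25° C., final DMSO 0.7%. IC50 came from a sigmoidal curve fit.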

Sequence of recombinant human NF-kappaB-inducing kinase (NIK/MAP3K14) (Q99558 whole entry): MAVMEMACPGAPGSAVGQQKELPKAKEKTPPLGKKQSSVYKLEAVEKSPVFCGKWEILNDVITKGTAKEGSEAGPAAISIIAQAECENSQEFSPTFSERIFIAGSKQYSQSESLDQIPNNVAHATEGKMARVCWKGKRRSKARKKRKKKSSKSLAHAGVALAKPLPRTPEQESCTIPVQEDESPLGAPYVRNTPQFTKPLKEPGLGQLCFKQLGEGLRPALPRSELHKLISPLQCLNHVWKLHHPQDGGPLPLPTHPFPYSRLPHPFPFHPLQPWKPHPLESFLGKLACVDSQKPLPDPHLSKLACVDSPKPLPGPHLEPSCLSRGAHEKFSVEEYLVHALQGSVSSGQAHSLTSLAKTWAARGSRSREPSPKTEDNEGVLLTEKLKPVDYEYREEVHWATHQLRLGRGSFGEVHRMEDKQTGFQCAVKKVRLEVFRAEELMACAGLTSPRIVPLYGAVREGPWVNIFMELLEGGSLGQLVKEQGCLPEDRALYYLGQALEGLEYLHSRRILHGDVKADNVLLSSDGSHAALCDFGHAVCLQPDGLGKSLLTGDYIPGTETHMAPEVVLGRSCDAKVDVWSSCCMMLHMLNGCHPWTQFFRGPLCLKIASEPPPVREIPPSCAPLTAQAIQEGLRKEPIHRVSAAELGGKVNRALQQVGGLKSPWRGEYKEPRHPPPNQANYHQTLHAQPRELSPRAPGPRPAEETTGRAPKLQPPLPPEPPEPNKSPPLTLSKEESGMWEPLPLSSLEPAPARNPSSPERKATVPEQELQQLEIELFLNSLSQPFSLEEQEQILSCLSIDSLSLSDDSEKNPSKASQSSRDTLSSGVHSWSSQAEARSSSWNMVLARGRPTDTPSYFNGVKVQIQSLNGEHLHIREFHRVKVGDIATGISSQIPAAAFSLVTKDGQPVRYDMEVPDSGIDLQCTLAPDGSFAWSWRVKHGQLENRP

IC50 ([1]; Homo sapiens, L-363, 6 h) | IC50 [2] | IC50 [1] | SMILES
> 5000 nM | 4700 nM |  | Cc1nc(N)c2nc(-c3cccc(C#C[C@](C)(O)c4ncc(C)s4)c3)ccc2n1 [Example 166, (S)-4-(3-(4-Amino-2-methylpyrido[3,2-d]pyrimidin-6-yl)phenyl)-2-(5-methylthiazol-2-yl)but-3-yn-2-ol]
140 nM | 5.7 nM |  | CN(C)Cc1cnc(N)c2nc(-c3cccc(C#C[C@]4(O)CCN(C)C4=O)c3)ncc12 [Example 135, (R)-3-[2-[3-[8-Amino-5-(dimethylaminomethyl)pyrido[3,4-d]pyrimidin-2-yl]phenyl]ethynyl]-3-hydroxy-1-methyl-pyrrolidin-2-one]
48 nM | 4.5 nM |  | Cc1ccc(C#C[C@]2(O)CCN(C)C2=O)cc1-c1nc(C)c2ncnc(N)c2n1 [Example 301, (R)-3-[2-[3-(8-Amino-4-methyl-pyrimido[5,4-d]pyrimidin-2-yl)-4-methyl-phenyl]ethynyl]-3-hydroxy-1-methyl-pyrrolidin-2-one]
 | 4220 nM | > 5000 nM | [2H]C([2H])([2H])N1CC[C@@](O)(C#Cc2ccc(C)c(-c3ccc4ccnc(N)c4c3)c2)C1=O (single isomer, unassigned) [Example 71]
2000 nM | 31 nM |  | Cc1cc([C@](C)(O)C#Cc2ccc(C)c(-c3ncc4ccnc(N)c4n3)c2)no1 [Example 82, (R)-4-(3-(8-Aminopyrido[3,4-d]pyrimidin-2-yl)-4-methylphenyl)-2-(5-methylisoxazol-3-yl)but-3-yn-2-ol]
11 nM | 0.9 nM |  | CN1CC[C@@](O)(C#Cc2cccc(-c3cc(-n4cccn4)c4ncnc(N)c4n3)c2)C1=O [Example 303, (R)-3-[2-[3-(4-Amino-8-pyrazol-1-yl-pyrido[3,2-d]pyrimidin-6-yl)phenyl]ethynyl]-3-hydroxy-1-methyl-pyrrolidin-2-one]
3470 nM | 12 nM |  | Cc1nc(N)c2nc(-c3cccc(C#C[C@@](C)(O)c4ncc(C)s4)c3)ccc2n1 [Example 167, (R)-4-(3-(4-Amino-2-methylpyrido[3,2-d]pyrimidin-6-yl)phenyl)-2-(5-methylthiazol-2-yl)but-3-yn-2-ol]
380 nM | 6.3 nM |  | Cc1nc(N)c2nc(-c3cccc(C#C[C@@](C)(O)c4ncccn4)c3)ccc2n1 [Example 197, (R)-4-[3-(4-Amino-2-methyl-pyrido[3,2-d]pyrimidin-6-yl)phenyl]-2-pyrimidin-2-yl-but-3-yn-2-ol]
6.1 nM | 0.7 nM |  | CNc1nc(-c2cccc(C#C[C@]3(O)CCN(C)C3=O)c2)nc2c(N)nccc12 [Example 85, (R)-3-((3-(8-Amino-4-(methylamino)pyrido[3,4-d]pyrimidin-2-yl)phenyl)ethynyl)-3-hydroxy-1-methylpyrrolidin-2-one]
2.8 nM | 0.7 nM |  | CN1CC[C@@](O)(C#Cc2cccc(-c3cc(C(F)(F)F)c4ncnc(N)c4n3)c2)C1=O [Example 284, (R)-3-((3-(4-Amino-8-(trifluoromethyl)pyrido[3,2-d]pyrimidin-6-yl)phenyl)ethynyl)-3-hydroxy-1-methylpyrrolidin-2-one]
230 nM | 2.4 nM |  | CN1CC[C@@](O)(C#Cc2cccc(-c3ccc4nc(C5CC5)nc(N)c4n3)c2)C1=O [Example 175, (R)-3-((3-(4-Amino-2-cyclopropylpyrido[3,2-d]pyrimidin-6-yl)phenyl)ethynyl)-3-hydroxy-1-methylpyrrolidin-2-one]
2.8 nM | ≤ 0.5 nM |  | CN1CC[C@@](O)(C#Cc2cccc(-c3ncc4ncnc(N)c4n3)c2)C1=O [Example 13, (R)-3-[2-[3-(4-Aminopyrimido[5,4-d]pyrimidin-6-yl)phenyl]ethynyl]-3-hydroxy-1-methyl-pyrrolidin-2-one]
27 nM | 0.8 nM |  | Cc1nc(-c2cccc(C#C[C@]3(O)CCc4cccnc43)c2)nc2c(N)nccc12 [Example 60, (R)-7-((3-(8-Amino-4-methylpyrido[3,4-d]pyrimidin-2-yl)phenyl)ethynyl)-6,7-dihydro-5H-cyclopenta[b]pyridin-7-ol]
42 nM | ≤ 0.5 nM |  | CN1CC[C@@](O)(C#Cc2cccc(-c3cc(C(F)(F)F)c4ncnc(N)c4c3)c2)C1=O [Example 115, (R)-3-((3-(4-Amino-8-(trifluoromethyl)quinazolin-6-yl)phenyl)ethynyl)-3-hydroxy-1-methylpyrrolidin-2-one]
8.3 nM | 1 nM |  | COc1ccc(C#C[C@]2(O)CCN(C)C2=O)cc1-c1nc2c(N)ncnc2s1 [Example 194, (R)-3-((3-(7-Aminothiazolo[5,4-d]pyrimidin-2-yl)-4-methoxyphenyl)ethynyl)-3-hydroxy-1-methylpyrrolidin-2-one]
> 5000 nM | > 5000 nM |  | Cc1nc(N)c2nc(-c3cccc(C#C[C@](C)(O)c4scnc4C)c3)ccc2n1 [Example 162, (S)-4-(3-(4-Amino-2-methylpyrido[3,2-d]pyrimidin-6-yl)phenyl)-2-(4-methylthiazol-5-yl)but-3-yn-2-ol]
17 nM | ≤ 0.5 nM |  | Cc1cnc(N)c2nc(-c3cccc(C#C[C@@](C)(O)c4nccs4)c3)ncc12 [Example 50, (R)-4-(3-(8-Amino-5-methylpyrido[3,4-d]pyrimidin-2-yl)phenyl)-2-(thiazol-2-yl)but-3-yn-2-ol]
40 nM | 1.6 nM |  | CN1CC[C@@](O)(C#Cc2cccc(-c3cc(N4CC5(C4)CC5(F)F)c4ncnc(N)c4n3)c2)C1=O [Example 307, (R)-3-[2-[3-[4-Amino-8-(2,2-difluoro-5-azaspiro[2.3]hexan-5-yl)pyrido[3,2-d]pyrimidin-6-yl]phenyl]ethynyl]-3-hydroxy-1-methyl-pyrrolidin-2-one]
3.7 nM | ≤ 0.5 nM |  | CN1CC[C@@](O)(C#Cc2cccc(-c3ncc4ccnc(N)c4n3)c2)C1=O [Example 1, (R)-3-[2-[3-(8-Aminopyrido[3,4-d]pyrimidin-2-yl)phenyl]ethynyl]-3-hydroxy-1-methyl-pyrrolidin-2-one]
9 nM | ≤ 0.5 nM |  | Cc1cnc(N)c2nc(-c3cccc(C#C[C@]4(O)CCN(C)C4=O)c3)ncc12 [Example 39, (R)-3-((3-(8-Amino-5-methylpyrido[3,4-d]pyrimidin-2-yl)phenyl)ethynyl)-3-hydroxy-1-methylpyrrolidin-2-one]
9.9 nM | ≤ 0.5 nM |  | CN1CCC(O)(C#Cc2cccc(-c3ccc4ccnc(N)c4n3)c2)C1=O (stereo in doubt) [Example 19, (R)-3-[2-[3-(8-Amino-1,7-naphthyridin-2-yl)phenyl]ethynyl]-3-hydroxy-1-methyl-pyrrolidin-2-one]
> 5000 nM | 710 nM |  | Cc1nc(N)c2nc(-c3cccc(C#C[C@@]4(O)CCCN(C)C4=O)c3)ccc2n1 [Example 186, (S)-3-((3-(4-Amino-2-methylpyrido[3,2-d]pyrimidin-6-yl)phenyl)ethynyl)-3-hydroxy-1-methylpiperidin-2-one]
11 nM | ≤ 0.5 nM |  | Cc1cc(-c2cccc(C#C[C@]3(O)CCN(C)C3=O)c2)cc2c(N)ncnc12 [Example 110, (R)-3-((3-(4-Amino-8-methylquinazolin-6-yl)phenyl)ethynyl)-3-hydroxy-1-methylpyrrolidin-2-one]
38 nM | 1.5 nM |  | CC(C)c1nc(-c2cccc(C#C[C@]3(O)CCN(C)C3=O)c2)nc2c(N)nccc12 [Example 98, (R)-3-((3-(8-Amino-4-isopropylpyrido[3,4-d]pyrimidin-2-yl)phenyl)ethynyl)-3-hydroxy-1-methylpyrrolidin-2-one]
> 5000 nM | 350 nM |  | Cc1nc(N)c2nc(-c3cccc(C#C[C@@](C)(O)c4scnc4C)c3)ccc2n1 [Example 163, (R)-4-(3-(4-Amino-2-methylpyrido[3,2-d]pyrimidin-6-yl)phenyl)-2-(4-methylthiazol-5-yl)but-3-yn-2-ol]
670 nM | 14 nM |  | CN1CC[C@@](O)(C#Cc2cccc(-c3ccc4ncnc(N5CCC5)c4c3)c2)C1=O [Example 243, (R)-3-((3-(4-(Azetidin-1-yl)quinazolin-6-yl)phenyl)ethynyl)-3-hydroxy-1-methylpyrrolidin-2-one]
8.1 nM | ≤ 0.5 nM |  | Cc1ccc(C#C[C@]2(O)CCN(C)C2=O)cc1-c1nc2c(N)ncnc2s1 [Example 10, (R)-3-((3-(7-Aminothiazolo[5,4-d]pyrimidin-2-yl)-4-methylphenyl)ethynyl)-3-hydroxy-1-methylpyrrolidin-2-one]
3190 nM | 29 nM |  | Cc1nc(N)c2nc(-c3cccc(C#C[C@@](C)(O)c4cnccn4)c3)ccc2n1 [Example 200, (R)-4-[3-(4-Amino-2-methyl-pyrido[3,2-d]pyrimidin-6-yl)phenyl]-2-pyrazin-2-yl-but-3-yn-2-ol]
36 nM | 2 nM |  | CN1CC[C@@](O)(C#Cc2ccc(OC(F)(F)F)c(-c3ncc4ccnc(N)c4n3)c2)C1=O [Example 56, (R)-3-((3-(8-Aminopyrido[3,4-d]pyrimidin-2-yl)-4-(trifluoromethoxy)phenyl)ethynyl)-3-hydroxy-1-methylpyrrolidin-2-one]
170 nM | 4 nM |  | Nc1nccc2c(C(F)(F)F)nc(-c3cccc(C#C[C@]4(O)CCc5cccnc54)c3)nc12 [Example 61, (R)-7-((3-(8-Amino-4-(trifluoromethyl)pyrido[3,4-d]pyrimidin-2-yl)phenyl)ethynyl)-6,7-dihydro-5H-cyclopenta[b]pyridin-7-ol]
